# Source: patent publication US20220089592A1, “IMIDAZO[1,2-A]PYRIDINYL DERIVATIVES AS IRAK4 INHIBITORS” (priority 2019, published 2022)
# Experiments:
# [1] = target: T1, IRAK4 (Homo sapiens, UniProt Q9NWZ3); test: 2-hour 1 mM ATP IRAK4 Biochemical assay (as above, but with 100 pM IRAK4 and 1 mM ATP); conditions: IRAK4 MSD BIOCHEMICAL (1 mM ATP) IC50 (μM), 100 pM IRAK4, 2 hours
# T1 sequence (Q9NWZ3 1-460): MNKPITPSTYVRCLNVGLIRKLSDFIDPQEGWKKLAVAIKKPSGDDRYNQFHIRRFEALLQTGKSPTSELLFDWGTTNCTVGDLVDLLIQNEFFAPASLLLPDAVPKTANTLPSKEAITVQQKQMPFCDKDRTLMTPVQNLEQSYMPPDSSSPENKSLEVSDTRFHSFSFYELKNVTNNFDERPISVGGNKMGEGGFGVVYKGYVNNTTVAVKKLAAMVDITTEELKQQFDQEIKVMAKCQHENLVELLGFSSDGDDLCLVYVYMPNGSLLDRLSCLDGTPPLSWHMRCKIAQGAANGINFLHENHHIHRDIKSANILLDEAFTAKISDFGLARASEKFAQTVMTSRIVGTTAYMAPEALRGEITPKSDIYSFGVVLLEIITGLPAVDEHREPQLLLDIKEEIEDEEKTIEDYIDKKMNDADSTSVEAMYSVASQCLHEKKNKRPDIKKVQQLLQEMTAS
# Procedure, shortened: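 MSD electrochemiluminescence read-out: biotinylated peptide product bound to streptavidin plates, probed with anti-P-Thr rabbit antibody and Sulfo-Tag goat anti-rabbit. Kinase reaction used 1 mM ATP and 100 pM IRAK4 over 2 hours before EDTA quench.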
# [2] = target: T1, IRAK4; test: 2-hour 10 μM ATP Biochemical Assay (MesoScale Detection format; IRAK4 phosphorylation of biotin labeled IRAK1 activation loop peptide); conditions: IRAK4 MSD BIOCHEMICAL (10 μM ATP) IC50 (μM), 1 nM IRAK4, 2 hours
# Procedure, shortened: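 Electrochemiluminescent MSD readout: after streptavidin capture, phosphothreonine on the biotin-labelled IRAK1 activation-loop peptide detected by rabbit antibody and Sulfo-Tag secondary. Phosphorylation ran 2 h with 10 μM ATP before EDTA quench.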
SMILES,IC50 [1],IC50 [2]
"CCOc1cc2nc([C@]34CCOC[C@H]3C4)cn2cc1NC(=O)c1cccc(C(F)F)n1 (relative stereo) [Example 249, N-(2-((1S*,6R*)-3-oxabicyclo[4.1.0]heptan-6-yl)-7-ethoxyimidazo[1,2-a]pyridin-6-yl)-6-(difluoromethyl)picolinamide]",0.001 µM,0.001 µM
"CCOc1cc2nc(C3CCCC(OC)C3)cn2cc1NC(=O)c1cccc(C(F)F)n1 (centres unmarked) [Example 256, 6-(difluoromethyl)-N-(7-ethoxy-2-(3-methoxycyclohexyl)imidazo[1,2-a]pyridin-6-yl)picolinamide]",0.001 µM,0.001 µM
"COCCOc1cc2nc(C3CC3)cn2cc1NC(=O)c1cccc(C(F)F)n1 [Example 101, N-(2-cyclopropyl-7-(2-methoxyethoxy)imidazo[1,2-a]pyridin-6-yl)-6-(difluoromethyl)picolinamide]",0.029 µM,0.006 µM
"CCOc1cc2nc(CF)cn2cc1NC(=O)c1cccc(C(F)(F)F)n1 [Example 20, N-(7-ethoxy-2-(fluoromethyl)imidazo[1,2-a]pyridin-6-yl)-6-(trifluoromethyl)picolinamide]",0.006 µM,0.003 µM
"CCOc1cc2nc(C(=O)N(C)C)cn2cc1NC(=O)c1cccc(C(F)F)n1 [Example 108, 6-(6-(difluoromethyl)picolinamido)-7-ethoxy-N,N-dimethylimidazo[1,2-a]pyridine-2-carboxamide]",0.025 µM,0.011 µM
"COc1nc(NC(=O)c2cccc(C(F)(F)F)n2)cn2cc(C3CCOCC3)nc12 [Example 451, N-(8-methoxy-2-(tetrahydro-2H-pyran-4-yl)imidazo[1,2-a]pyrazin-6-yl)-6-(trifluoromethyl)picolinamide 2,2,2-trifluoroacetate]",0.066 µM,0.029 µM
"CCOc1cc2nc(CC3CCOC3)cn2cc1NC(=O)c1ccn(CC(F)(F)F)n1 (centres unmarked) [Example 123, N-(7-ethoxy-2-((tetrahydrofuran-3-yl)methyl)imidazo[1,2-a]pyridin-6-yl)-1-(2,2,2-trifluoroethyl)-1H-pyrazole-3-carboxamide]",0.014 µM,0.008 µM
"CCOc1cc2nc([C@@H]3C[C@H]3F)cn2cc1NC(=O)c1cccc(C(F)F)n1 (stereo in doubt) [Example 254, 6-(difluoromethyl)-N-(7-ethoxy-2-((1S*, 2R*)-2-fluorocyclopropyl)imidazo[1,2-a]pyridin-6-yl)picolinamide]",0.005 µM,0.002 µM
CCOc1cc2nc([C@H]3C[C@@H](O)C3)cn2cc1NC(=O)c1cccc(C(F)F)n1 [Example 97],0.002 µM,0.002 µM
"CCOc1cc2nc([C@H]3C[C@@H](OC)C3)cn2cc1NC(=O)c1cccc(C(F)F)n1 [Example 115, 6-(difluoromethyl)-N-(7-ethoxy-2-((1s,3s)-3-methoxycyclobutyl)imidazo[1,2-a]pyridin-6-yl)picolinamide]",0.002 µM,0.001 µM
"CCOc1cc2nc(C[C@@H]3CCOC3)cn2cc1NC(=O)c1cccc(C(F)F)n1 (single isomer, unassigned) [Example 16]",0.001 µM,0.001 µM
"N#CC1CCC(Oc2cc3nc(C4CCOCC4)cn3cc2NC(=O)c2cccc(C(F)F)n2)C1 (centres unmarked) [Example 179, N-(7-((3-cyanocyclopentyl)oxy)-2-(tetrahydro-2H-pyran-4-yl)imidazo[1,2-a]pyridin-6-yl)-6-(difluoromethyl)picolinamide]",0.001 µM,0.001 µM
"O=C(Nc1cn2cc(C3CC3)nc2cc1OCc1ccccc1)c1cccc(C(F)F)n1 [Example 9, N-(7-(benzyloxy)-2-cyclopropylimidazo[1,2-a]pyridin-6-yl)-6-(difluoromethyl)picolinamide]",0.01 µM,0.005 µM
"O=C(Nc1cn2cc(C3CC3)nc2cc1OCC1CCC1)c1cccc(C(F)F)n1 [Example 5, N-(7-(cyclobutylmethoxy)-2-cyclopropylimidazo[1,2-a]pyridin-6-yl)-6-(difluoromethyl)picolinamide]",0.003 µM,0.003 µM
"CCOc1cc2nc(CC3CCOC3)cn2cc1NC(=O)c1cccn(C)c1=O (centres unmarked) [Example 373, N-(7-ethoxy-2-((tetrahydrofuran-3-yl)methyl)imidazo[1,2-a]pyridin-6-yl)-1-methyl-2-oxo-1,2-dihydropyridine-3-carboxamide]",0.028 µM,0.008 µM
"CCOc1cc2nc(CC)cn2cc1NC(=O)c1ccc2c(n1)CCC2 [Example 49, N-(7-ethoxy-2-ethylimidazo[1,2-a]pyridin-6-yl)-6,7-dihydro-5H-cyclopenta[b]pyridine-2-carboxamide]",0.019 µM,0.006 µM
"CCOc1cc2nc(CCCOC)cn2cc1NC(=O)c1ccn(C(F)F)n1 [Example 88, 1-(difluoromethyl)-N-(7-ethoxy-2-(3-methoxypropyl)imidazo[1,2-a]pyridin-6-yl)-1H-pyrazole-3-carboxamide]",0.004 µM,0.003 µM

# Other lines, results leading:
IC50 [1],IC50 [2],SMILES
0.015 µM,0.005 µM,"CCOc1cc(NC(=O)c2cccc(C(F)F)n2)cn2cc(C3CCOCC3)nc12 [Example 413, 6-(difluoromethyl)-N-(8-ethoxy-2-(tetrahydro-2H-pyran-4-yl)imidazo[1,2-a]pyridin-6-yl)picolinamide]"
0.017 µM,0.006 µM,"CCOc1cc2nc(C3CCOCC3)cn2cc1NC(=O)c1cccc(OC(F)F)n1 [Example 362, 6-(difluoromethoxy)-N-(7-ethoxy-2-(tetrahydro-2H-pyran-4-yl)imidazo[1,2-a]pyridin-6-yl)picolinamide]"
0.019 µM,0.005 µM,"CCOc1cc2nc(C3CCOCC3)cn2cc1NC(=O)c1ccccc1OC [Example 213, N-(7-ethoxy-2-(tetrahydro-2H-pyran-4-yl)imidazo[1,2-a]pyridin-6-yl)-2-methoxybenzamide]"
0.041 µM,0.01 µM,"CCOc1cc2nc(C3CCOCC3)cn2cc1NC(=O)c1ccn2c1CCCC2 [Example 222, N-(7-ethoxy-2-(tetrahydro-2H-pyran-4-yl)imidazo[1,2-a]pyridin-6-yl)-5,6,7,8-tetrahydroindolizine-1-carboxamide]"
0.037 µM,0.008 µM,"CCOc1cc2nc(C3CCOCC3)cn2cc1NC(=O)c1cccc(OC)c1F [Example 215, N-(7-ethoxy-2-(tetrahydro-2H-pyran-4-yl)imidazo[1,2-a]pyridin-6-yl)-2-fluoro-3-methoxybenzamide]"
0.001 µM,0.001 µM,"CC1CCC(Oc2cc3nc(C4CCOCC4)cn3cc2NC(=O)c2cccc(C(F)F)n2)C1 (centres unmarked) [Example 178, 6-(difluoromethyl)-N-(7-((3-methylcyclopentyl)oxy)-2-(tetrahydro-2H-pyran-4-yl)imidazo[1,2-a]pyridin-6-yl)picolinamide]"
0.004 µM,0.001 µM,"O=C(Nc1cn2cc(C3CCOCC3)nc2cc1OC1COC1)c1cccc(C(F)F)n1 [Example 182, 6-(difluoromethyl)-N-(7-(oxetan-3-yloxy)-2-(tetrahydro-2H-pyran-4-yl)imidazo[1,2-a]pyridin-6-yl)picolinamide]"
0.012 µM,0.003 µM,"CCOc1cc2nc(C3CCOCC3)cn2cc1NC(=O)c1ccn(CC)n1 [Example 205, N-(7-ethoxy-2-(tetrahydro-2H-pyran-4-yl)imidazo[1,2-a]pyridin-6-yl)-1-ethyl-1H-pyrazole-3-carboxamide]"
0.056 µM,0.013 µM,"CCOc1cc2nc(C3CCOCC3)cn2cc1NC(=O)c1cccc(C(F)F)c1 [Example 228, 3-(difluoromethyl)-N-(7-ethoxy-2-(tetrahydro-2H-pyran-4-yl)imidazo[1,2-a]pyridin-6-yl)benzamide]"
0.038 µM,0.015 µM,"CCOc1cc2nc(C3CCOCC3)cn2cc1NC(=O)c1cc(F)n(C)n1 [Example 210, N-(7-ethoxy-2-(tetrahydro-2H-pyran-4-yl)imidazo[1,2-a]pyridin-6-yl)-5-fluoro-1-methyl-1H-pyrazole-3-carboxamide]"
0.023 µM,0.007 µM,"CCOc1cc2nc(C3CCOCC3)cn2cc1NC(=O)c1ccccn1 [Example 216, N-(7-ethoxy-2-(tetrahydro-2H-pyran-4-yl)imidazo[1,2-a]pyridin-6-yl)picolinamide]"
0.044 µM,0.005 µM,"CCOc1cc2nc(C3CC3)cn2cc1NC(=O)c1cccc(N2CCOCC2)n1 [Example 131, N-(2-cyclopropyl-7-ethoxyimidazo[1,2-a]pyridin-6-yl)-6-morpholinopicolinamide]"
0.02 µM,0.004 µM,"CCOc1cc2nc(C3CCOCC3)cn2cc1NC(=O)c1cccc(OC(C)C)n1 [Example 220, N-(7-ethoxy-2-(tetrahydro-2H-pyran-4-yl)imidazo[1,2-a]pyridin-6-yl)-6-isopropoxypicolinamide]"
0.002 µM,0.001 µM,"CCOc1cc2nc(C3CCOCC3)cn2cc1NC(=O)c1cccc(C(C)C)n1 [Example 218, N-(7-ethoxy-2-(tetrahydro-2H-pyran-4-yl)imidazo[1,2-a]pyridin-6-yl)-6-isopropylpicolinamide]"
